Structures can show the parent of a compound that is named as a salt. Where two headings read alike, the source gives them in different places.
Tests used:
MST2 = target: T1, MST2 (Homo sapiens, UniProt Q13188); experiment: MST2 protein kinase assay; format: biochemical; details: for remaining activity at 10 µM: 10 μM compound; for residual kinase activity MST2: 1 μm compound; for remaining activity at 1 µM: 1 μM compound
T1 construct: All protein kinases were of human origin and encoded full length proteins, unless indicated otherwise; made in house
T1 sequence (Q13188 1-491): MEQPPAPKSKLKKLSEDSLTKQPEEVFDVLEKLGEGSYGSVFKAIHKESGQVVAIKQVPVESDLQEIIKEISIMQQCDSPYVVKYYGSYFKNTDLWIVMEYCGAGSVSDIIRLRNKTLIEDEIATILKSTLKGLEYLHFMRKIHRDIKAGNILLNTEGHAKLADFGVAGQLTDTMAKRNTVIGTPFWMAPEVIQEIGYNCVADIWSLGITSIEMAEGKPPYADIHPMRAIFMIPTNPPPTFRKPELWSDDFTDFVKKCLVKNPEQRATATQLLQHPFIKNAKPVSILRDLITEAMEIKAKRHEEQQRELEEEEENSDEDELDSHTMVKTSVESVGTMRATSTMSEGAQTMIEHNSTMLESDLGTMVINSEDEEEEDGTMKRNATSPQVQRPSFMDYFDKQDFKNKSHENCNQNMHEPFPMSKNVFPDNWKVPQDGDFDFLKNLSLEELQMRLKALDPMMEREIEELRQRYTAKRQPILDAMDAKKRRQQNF
From the text: (§1) All protein kinases were of human origin and encoded full length proteins, unless indicated otherwise. They were either expressed as glutathione S-transferase (GST) fusion proteins in Escherichia Coli or as hexahistidine (His6)-tagged proteins in insect Sf21 cells. GST fusion proteins were purified by affinity chromatography on glutathione-Sepharose, and His6-tagged proteins on nickel/nitriloacetate-agarose. The procedures for expressing some of the protein kinases used herein have been detailed previously.^8,9 The following sections outline the DNA vectors synthesised and the procedures used to express and purifying protein kinases that have not been reported previously.
(§2) All assays (25.5 μl) were carried out at room temperature (21° C.) and were linear with respect to time and enzyme concentration under the conditions used. Assays were performed for 30 min using Multidrop Micro reagent dispensers (Thermo Electron Corporation, Waltham, Mass. 02454, USA) in a 96-well format. The concentration of magnesium acetate in the assays was 10 mM and the [γ-33P] ATP (800 cpm/pmol) was used at 5, 20 or 50 μM as indicated, in order to be at or below the Km for ATP for each enzyme. Protein kinases assayed at 5 μM ATP were: —ERK1, ERK8, PKBα, MARK3, Aurora C. Protein kinases assayed at 20 μM ATP were: —JNK1, PDK1, CHK1, CHK2, CDK2 and Aurora B. Protein kinases assayed at 50 μM ATP were: —MNK2, IKKepsilon and TBK1.
(§3) The assays were initiated with MgATP, stopped by addition of 5 μl of 0.5 M orthophosphoric acid and spotted on to P81 filterplates using a unifilter harvester (PerkinElmer, Boston, Mass. 02118, USA). The IC50 values of inhibitors were determined after carrying out assays at 10 different concentrations of each compound.
(§4) Unless stated otherwise, enzymes were diluted in 50 mM Tris/HCl pH 7.5, 0.1 mM EGTA, 1 mg/ml BSA, 0.1% (v/v) 2-mercaptoethanol and assayed in 50 mM Tris/HCl pH 7.5, 0.1 mM EGTA, 0.1% (v/v) 2-mercaptoethanol.

IGF-1R = IGF-1R protein kinase assay; format: biochemical, human; details: for residual kinase activity: IGF-1R
From the text: as §1, §2, §3, §4

PKBb = PKBb (Homo sapiens, UniProt P31751, S474D); experiment: PKBb protein kinase assay
SmMLCK = SmMLCK protein kinase assay; format: biochemical, human; details: for residual kinase activity: SmMLCK
From the text: as §1, §2, §3, §4

S6K1 = target: T2, S6K1 (Homo sapiens, UniProt P23443, T412E); experiment: S6K1 protein kinase assay; format: biochemical; details: for remaining activity at 10 µM: 10 μM compound; for residual kinase activity S6K1: 1 μm compound; for remaining activity at 1 µM: 1 μM compound
T2 construct: All protein kinases were of human origin and encoded full length proteins, unless indicated otherwise; made in house
From the text: as §1, §2, §3, §4

DYRK3 = target: T3, DYRK3 (Homo sapiens, UniProt O43781); experiment: DYRK3 protein kinase assay; format: biochemical; details: for remaining activity at 10 µM: 10 μM compound; for residual kinase activity DYRK3: 1 μm compound; for remaining activity at 1 µM: 1 μM compound
T3 construct: All protein kinases were of human origin and encoded full length proteins, unless indicated otherwise; made in house
T3 sequence (O43781 1-588): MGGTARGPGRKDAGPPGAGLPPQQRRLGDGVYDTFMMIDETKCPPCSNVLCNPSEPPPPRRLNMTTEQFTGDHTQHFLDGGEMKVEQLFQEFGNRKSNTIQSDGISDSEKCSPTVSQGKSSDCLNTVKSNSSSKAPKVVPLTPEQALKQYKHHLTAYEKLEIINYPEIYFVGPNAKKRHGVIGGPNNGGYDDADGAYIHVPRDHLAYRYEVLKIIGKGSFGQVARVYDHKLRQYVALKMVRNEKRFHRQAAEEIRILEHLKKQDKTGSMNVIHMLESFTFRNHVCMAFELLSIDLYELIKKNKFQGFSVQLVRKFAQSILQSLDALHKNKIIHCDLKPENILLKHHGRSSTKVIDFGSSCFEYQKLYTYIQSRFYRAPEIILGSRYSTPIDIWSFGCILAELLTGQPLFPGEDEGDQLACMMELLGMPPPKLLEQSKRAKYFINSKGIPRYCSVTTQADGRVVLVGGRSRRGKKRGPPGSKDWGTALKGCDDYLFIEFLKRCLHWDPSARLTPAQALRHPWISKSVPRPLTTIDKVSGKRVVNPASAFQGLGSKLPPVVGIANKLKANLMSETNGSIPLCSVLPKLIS
From the text: as §1, §2, §3, §4

ERK2 = target: T4, ERK2 (Homo sapiens, UniProt P28482); experiment: ERK2 protein kinase assay; format: biochemical; details: for remaining activity at 10 µM: 10 μM compound; for residual kinase activity ERK2: 1 μm compound; for remaining activity at 1 µM: 1 μM compound
T4 construct: All protein kinases were of human origin and encoded full length proteins, unless indicated otherwise; made in house
From the text: as §1, §2, §3, §4

SRPK1 = target: T5, SRPK1 (Homo sapiens, UniProt Q96SB4); experiment: SRPK1 protein kinase assay; format: biochemical; details: for remaining activity at 10 µM: 10 μM compound; for residual kinase activity SRPK1: 1 μm compound; for remaining activity at 1 µM: 1 μM compound
T5 construct: All protein kinases were of human origin and encoded full length proteins, unless indicated otherwise; made in house
From the text: as §1, §2, §3, §4

[1] = read-out: residual kinase activity MST2
[2] = read-out: residual kinase activity PKBb
[3] = read-out: residual kinase activity S6K1
[4] = read-out: residual kinase activity DYRK3
[5] = read-out: residual kinase activity ERK2
[6] = read-out: residual kinase activity SRPK1
[7] = MST2, read-out: residual kinase activity
[8] = read-out: residual kinase activity
[9] = S6K1, read-out: residual kinase activity
[10] = DYRK3, read-out: residual kinase activity
[11] = ERK2, read-out: residual kinase activity
[12] = SRPK1, read-out: residual kinase activity

T5 sequence (Q96SB4 whole entry): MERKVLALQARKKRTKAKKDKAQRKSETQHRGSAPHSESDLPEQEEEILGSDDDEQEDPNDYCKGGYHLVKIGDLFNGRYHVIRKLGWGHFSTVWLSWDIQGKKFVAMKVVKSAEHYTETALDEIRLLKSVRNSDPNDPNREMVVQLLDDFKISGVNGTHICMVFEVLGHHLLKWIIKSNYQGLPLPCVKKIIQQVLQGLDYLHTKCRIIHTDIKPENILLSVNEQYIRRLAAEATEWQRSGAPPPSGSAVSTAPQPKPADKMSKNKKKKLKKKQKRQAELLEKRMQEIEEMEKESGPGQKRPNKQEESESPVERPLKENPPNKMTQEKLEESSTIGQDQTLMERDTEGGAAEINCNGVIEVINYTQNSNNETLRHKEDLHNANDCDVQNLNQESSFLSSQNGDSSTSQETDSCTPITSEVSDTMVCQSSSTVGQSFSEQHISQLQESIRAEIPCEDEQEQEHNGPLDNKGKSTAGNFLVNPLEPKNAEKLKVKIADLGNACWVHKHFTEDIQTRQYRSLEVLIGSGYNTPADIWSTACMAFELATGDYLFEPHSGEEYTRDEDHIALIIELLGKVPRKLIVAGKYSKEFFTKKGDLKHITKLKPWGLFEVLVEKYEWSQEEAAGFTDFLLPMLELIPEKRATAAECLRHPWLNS
T4 sequence (P28482 2-360): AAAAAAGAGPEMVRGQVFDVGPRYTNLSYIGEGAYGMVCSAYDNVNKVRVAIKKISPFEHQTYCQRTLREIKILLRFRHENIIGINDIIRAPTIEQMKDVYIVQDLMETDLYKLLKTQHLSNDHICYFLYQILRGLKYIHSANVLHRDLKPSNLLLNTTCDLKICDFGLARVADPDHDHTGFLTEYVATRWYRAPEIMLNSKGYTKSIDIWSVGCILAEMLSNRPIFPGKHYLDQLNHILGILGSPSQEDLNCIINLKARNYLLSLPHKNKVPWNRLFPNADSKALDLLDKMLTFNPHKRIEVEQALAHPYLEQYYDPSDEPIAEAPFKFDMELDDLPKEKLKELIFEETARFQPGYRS
T2 sequence (P23443 1-421 T412E limits assumed): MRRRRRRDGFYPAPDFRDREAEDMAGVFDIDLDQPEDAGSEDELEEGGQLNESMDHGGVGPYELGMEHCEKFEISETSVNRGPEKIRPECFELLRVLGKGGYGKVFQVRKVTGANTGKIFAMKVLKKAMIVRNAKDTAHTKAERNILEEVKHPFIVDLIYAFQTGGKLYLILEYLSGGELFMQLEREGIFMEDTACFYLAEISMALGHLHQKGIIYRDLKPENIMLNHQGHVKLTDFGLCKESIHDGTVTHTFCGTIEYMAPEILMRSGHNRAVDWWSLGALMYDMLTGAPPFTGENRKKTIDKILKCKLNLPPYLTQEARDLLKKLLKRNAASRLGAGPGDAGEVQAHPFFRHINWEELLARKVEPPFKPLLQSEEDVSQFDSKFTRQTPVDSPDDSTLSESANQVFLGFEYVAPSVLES
Sequence of PKBb (P31751 120-481 S474D): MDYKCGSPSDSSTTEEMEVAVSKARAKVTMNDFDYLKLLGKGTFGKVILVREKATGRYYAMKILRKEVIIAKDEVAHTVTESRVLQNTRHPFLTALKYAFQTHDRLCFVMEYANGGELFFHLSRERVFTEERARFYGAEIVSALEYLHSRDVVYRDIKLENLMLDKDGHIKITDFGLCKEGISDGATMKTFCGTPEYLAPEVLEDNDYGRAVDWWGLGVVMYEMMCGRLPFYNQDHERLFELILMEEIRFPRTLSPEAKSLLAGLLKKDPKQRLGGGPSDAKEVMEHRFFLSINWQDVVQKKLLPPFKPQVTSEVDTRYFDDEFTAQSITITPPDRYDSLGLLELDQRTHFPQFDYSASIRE

SMILES	remaining activity at 10 µM (MST2; [1]) [%]	residual kinase activity MST2 (MST2) [%]	residual kinase activity IGF-1R (IGF-1R; 10 μM compound) [%]	residual kinase activity IGF-1R (IGF-1R; 1 μm compound) [%]	remaining activity at 1 µM (MST2; [7]) [%]	remaining activity at 10 µM (MST2; [7]) [%]	residual kinase activity (IGF-1R; 1 μM compound) [%]	residual kinase activity (IGF-1R; 10 μM compound) [%]	remaining activity at 1 µM (PKBb; [8]) [%]	remaining activity at 10 µM (PKBb; [8]) [%]	residual kinase activity (SmMLCK; 1 μM compound) [%]	residual kinase activity (SmMLCK; 10 μM compound) [%]	remaining activity at 1 µM (S6K1; [9]) [%]	remaining activity at 10 µM (S6K1; [9]) [%]	remaining activity at 1 µM (DYRK3; [10]) [%]	remaining activity at 10 µM (DYRK3; [10]) [%]	remaining activity at 1 µM (ERK2; [11]) [%]	remaining activity at 10 µM (ERK2; [11]) [%]	remaining activity at 1 µM (SRPK1; [12]) [%]	remaining activity at 10 µM (SRPK1; [12]) [%]	further results
O=C(NCCCNc1nc(Nc2cccc(F)c2)ncc1Br)C1CCC1 [Compound A, cyclobutanecarboxylic acid {3-[5-bromo-2-(3-fluoro-phenylamino)-pyrimidin-4-ylamino]-propyl}-amide, reference compound]	6	29	21	78	–	–	–	–	–	–	–	–	–	–	–	–	–	–	–	–	remaining activity at 1 µM (PKBb; [2]): 91%; remaining activity at 10 µM (PKBb; [2]): 93%; residual kinase activity SmMLCK (SmMLCK; 10 μM compound): 59%; residual kinase activity SmMLCK (SmMLCK; 1 μm compound): 101%; remaining activity at 10 µM (S6K1; [3]): 13%; residual kinase activity S6K1 (S6K1): 49%; remaining activity at 10 µM (DYRK3; [4]): 7%; residual kinase activity DYRK3 (DYRK3): 33%; remaining activity at 10 µM (ERK2; [5]): 10%; residual kinase activity ERK2 (ERK2): 49%; remaining activity at 10 µM (SRPK1; [6]): 31%; residual kinase activity SRPK1 (SRPK1): 69%
O=C(NCCCNc1nc(Nc2cccc(F)c2)ncc1C1CC1)C1CCC1 [Example 23, Cyclobutanecarboxylic acid {3-[5-cyclopropyl-2-(3-fluoro-phenylamino)-pyrimidin-4-ylamino]-propyl}-amide]	33	73	87	86	73	33	86	87	106	114	72	74	38	30	78	36	107	108	75	40	remaining activity at 1 µM (PKBb; [2]): 106%; remaining activity at 10 µM (PKBb; [2]): 114%; residual kinase activity SmMLCK (SmMLCK; 10 μM compound): 74%; residual kinase activity SmMLCK (SmMLCK; 1 μm compound): 72%; remaining activity at 10 µM (S6K1; [3]): 30%; residual kinase activity S6K1 (S6K1): 38%; remaining activity at 10 µM (DYRK3; [4]): 36%; residual kinase activity DYRK3 (DYRK3): 78%; remaining activity at 10 µM (ERK2; [5]): 108%; residual kinase activity ERK2 (ERK2): 107%; remaining activity at 10 µM (SRPK1; [6]): 40%; residual kinase activity SRPK1 (SRPK1): 75%
O=C(NCCCNc1nc(Nc2cccc(N3CCCC3=O)c2)ncc1C1CC1)c1cccs1 [Example 47, Thiophene-2-carboxylic acid (3-{5-cyclopropyl-2-[3-(2-oxo-pyrrolidin-1-yl)-phenylamino]-pyrimidin-4-ylamino}-propyl)-amide. Hydrochloride salt]	–	–	–	–	84	70	39	35	117	97	102	81	63	30	73	33	90	66	81	78	–
O=C(NCCCNc1nc(Nc2cccnc2)ncc1C1CC1)c1cccs1 [Example 50, Thiophene-2-carboxylic acid {3-[5-cyclopropyl-2-(pyridin-3-ylamino)-pyrimidin-4-ylamino]-propyl}-amide]	–	–	–	–	73	33	47	32	116	107	88	75	63	30	59	22	106	62	84	57	–

From patent US20100056524A1, “Compound” (priority 2008, published 2010)
